Source: patent publication US12552758B2, “Inhibitors of MLH1 and/or PMS2 for cancer treatment” (NeoPhore Limited, priority 2020, dated 2026)

Assays:
[1] = biological target: recombinant N-terminal PMS2 (residues 1-365) (Homo sapiens (Human), UniProt P54278); assay: Fluorescence polarisation assay for PMS2; assay type: binding; conditions: FP probe displacement; 10 nM N-terminal PMS2, 5 nM probe compound, read after 1 hour
Protocol: Fluorescence Polarisation Assay for PMS2
(§1) Test compounds, as 10 mM DMSO stocks, were dispensed into a Black Fluotrac 200 384 well medium binding plate (Greiner Bio-One, item number 781076) using a Labcyte Echo acoustic liquid handler. For single point screening, test compounds were added to wells in columns 1-22 whilst DMSO was added to wells in columns 23 and 24 in order to normalise the plate. For potency determination, serial dilutions of test compounds were added to wells in columns 3-22 and DMSO volume was normalised across the plate.
20 μL assay buffer was added to all wells in columns 1 and 24 (column 24 only for single point screening) using a MultiDrop Combi (ThermoFisher). Plates were centrifuged for 1 minute at 250×g and were incubated at room temperature for 30 minutes prior to the addition of 20 μL of 2×([…]) of 5-((5-(4-((2-(2,4-dihydroxy-5-isopropylbenzoyl)isoindolin-5-yl)methyl)piperazin-1-yl)pentyl)carbamoyl)-2-(6-(dimethylamino)-3-(dimethyliminio)-3H-xanthen-9-yl)benzoate (referred to hereinafter as “probe compound”) in assay buffer (prepared from a 100 μM DMSO stock) with a MultiDrop Combi (ThermoFisher). The final concentration of N-terminal PMS2 was 10 nM and the final concentration of probe compound was 5 nM.
(§2) Compound plates were centrifuged for 1 minute at 250×g for 1 minute and were incubated at room temperature for 1 hour before being read on a PheraStar FSX (fitted with 384-well aperture spoon and 540 590 590 FP optic module). The gain and focus were adjusted before each plate was read so that the polarisation of a no enzyme control (column 24) was equal to 35 mP. Data were normalised against the no inhibitor controls (column 23) and no enzyme controls (column 24).

[2] = biological target: recombinant N-terminal MLH1 (residues 15-340) (Homo sapiens (Human), UniProt P40692); assay: Fluorescence polarisation assay for MLH1 (protocol for all Examples except Examples 64, 76, 90 and 95); assay type: binding; conditions: FP probe displacement; 100 nM N-terminal MLH1, 5 nM probe compound, read after 15 minutes; all Examples except 64, 76, 90 and 95
Protocol: Fluorescence Polarisation Assay for MLH1 (Protocol for all Examples Except Examples 64, 76, 90 and 95)
as §1
20 μL assay buffer was added to all wells in columns 1 and 24 (column 24 only for single point screening) using a MultiDrop Combi (ThermoFisher). Plates were centrifuged for 1 minute at 250×g and were incubated at room temperature for 30 minutes prior to the addition of 20 μL of 2×(10 nM) of 5-((5-(4-((2-(2,4-dihydroxy-5-isopropylbenzoyl)isoindolin-5-yl)methyl)piperazin-1-yl)pentyl)carbamoyl)-2-(6-(dimethylamino)-3-(dimethyliminio)-3H-xanthen-9-yl)benzoate (referred to hereinafter as “probe compound”) in assay buffer (prepared from a 100 μM DMSO stock) with a MultiDrop Combi (ThermoFisher). The final concentration of N-terminal MLH1 was 100 nM and the final concentration of probe compound was 5 nM.
as §2, with “15 minutes” for “1 hour”

Sequence of recombinant N-terminal PMS2 (residues 1-365) (P54278 1-365): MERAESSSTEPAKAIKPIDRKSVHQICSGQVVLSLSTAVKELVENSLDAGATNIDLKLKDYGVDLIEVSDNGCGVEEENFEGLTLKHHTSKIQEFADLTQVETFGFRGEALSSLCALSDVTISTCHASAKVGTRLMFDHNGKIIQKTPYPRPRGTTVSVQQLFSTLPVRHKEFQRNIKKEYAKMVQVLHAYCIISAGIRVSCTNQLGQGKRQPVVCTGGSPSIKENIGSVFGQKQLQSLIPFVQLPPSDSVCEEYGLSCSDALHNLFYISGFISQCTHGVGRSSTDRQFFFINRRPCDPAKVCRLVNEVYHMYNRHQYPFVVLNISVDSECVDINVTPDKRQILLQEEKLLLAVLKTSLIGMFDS
Sequence of recombinant N-terminal MLH1 (residues 15-340) (P40692 15-340): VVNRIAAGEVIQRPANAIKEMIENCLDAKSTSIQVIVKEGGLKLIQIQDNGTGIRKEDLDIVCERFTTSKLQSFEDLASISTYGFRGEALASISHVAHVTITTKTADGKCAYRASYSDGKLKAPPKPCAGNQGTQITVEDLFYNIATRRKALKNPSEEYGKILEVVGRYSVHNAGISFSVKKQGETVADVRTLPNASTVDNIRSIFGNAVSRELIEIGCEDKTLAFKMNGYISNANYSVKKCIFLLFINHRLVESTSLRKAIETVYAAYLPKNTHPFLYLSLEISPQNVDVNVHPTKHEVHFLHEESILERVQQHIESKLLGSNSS

SMILES	IC50 [1] [µM]	IC50 [2] [µM]
Cc1c(O)cc(O)c(C(=O)N2Cc3ccccc3C2CO)c1OCc1ccccc1 (stereo not shown) [Example 63, (2-(benzyloxy)-4,6-dihydroxy-3-methylphenyl)(1-(hydroxymethyl)isoindolin-2-yl)methanone]	1 to 10	> 10
Cc1c(O)cc(O)c(C(=O)N2CCc3ccccc3C2CO)c1OCc1ccccc1 (stereo not shown) [Example 65, (2-(Benzyloxy)-4,6-dihydroxy-3-methylphenyl)(1-(hydroxymethyl)-3,4-dihydroisoquinolin-2(1H)-yl)methanone]	> 10	> 10
Cc1c(O)cc(O)c(C(=O)N2Cc3ccccc3C(CO)C2)c1OCc1ccccc1 (stereo not shown) [Example 66, (2-(Benzyloxy)-4,6-dihydroxy-3-methylphenyl)(4-(hydroxymethyl)-3,4-dihydroisoquinolin-2(1H)-yl)methanone]	1 to 10	> 10
Cc1c(O)cc(O)c(C(=O)N2Cc3ccc(CN(C)C)cc3C2)c1OCc1ccccc1 [Example 68, (2-(Benzyloxy)-4,6-dihydroxy-3-methylphenyl)(5-((dimethylamino)methyl)isoindolin-2-yl)methanone]	< 1	> 10
Cc1c(O)cc(O)c(C(=O)N2Cc3ccc(CN4CCOCC4)cc3C2)c1OCc1ccccc1 [Example 69, (2-(Benzyloxy)-4,6-dihydroxy-3-methylphenyl)(5-(morpholinomethyl)isoindolin-2-yl)methanone]	< 1	> 10
Cc1c(O)cc(O)c(C(=O)N2CCc3ccccc32)c1OCc1ccccc1 [Example 70, (2-(Benzyloxy)-4,6-dihydroxy-3-methylphenyl)(indolin-1-yl)methanone]	1 to 10	> 10
O=C(c1c(O)cc(O)cc1OCc1ccccc1)N1CCc2ccccc21 [Example 71, (2-(Benzyloxy)-4,6-dihydroxyphenyl)(indolin-1-yl)methanone]	1 to 10	1 to 10
Cc1c(O)cc(O)c(C(=O)N2CCCc3ccccc32)c1OCc1ccccc1 [Example 72, (2-(Benzyloxy)-4,6-dihydroxy-3-methylphenyl)(3,4-dihydroquinolin-1(2H)-yl)methanone]	1 to 10	> 10
O=C(c1c(O)cc(O)cc1OCc1ccccc1)N1CCCc2ccccc21 [Example 73, (2-(Benzyloxy)-4,6-dihydroxyphenyl)(3,4-dihydroquinolin-1(2H)-yl)methanone]	1 to 10	1 to 10
Cc1c(O)cc(O)c(C(=O)N2Cc3ccncc3C2)c1OCc1ccccc1 [Example 74, (2-(Benzyloxy)-4,6-dihydroxy-3-methylphenyl)(1,3-dihydro-2H-pyrrolo[3,4-c]pyridin-2-yl)methanone]	< 1	> 10
Cc1c(O)cc(O)c(C(=O)N2Cc3cccc(CN4CCN(C)CC4)c3C2)c1OCc1ccccc1 [Example 75, (2-(Benzyloxy)-4,6-dihydroxy-3-methylphenyl)(4-((4-methylpiperazin-1-yl)methyl)isoindolin-2-yl)methanone]	< 1	> 10
Cc1c(O)cc(O)c(C(=O)N2CCc3ccc(C(=O)N(C)C)cc3C2)c1OCc1ccccc1 [Example 77, 2-(2-(Benzyloxy)-4,6-dihydroxy-3-methylbenzoyl)-N,N-dimethyl-1,2,3,4-tetrahydroisoquinoline-7-carboxamide]	< 1	> 10
Cc1c(O)cc(O)c(C(=O)N2CCc3cc(C(=O)N(C)C)ccc3C2)c1OCc1ccccc1 [Example 78, 2-(2-(benzyloxy)-4,6-dihydroxy-3-methylbenzoyl)-N,N-dimethyl-1,2,3,4-tetrahydroisoquinoline-6-carboxamide]	< 1	> 10
Cc1c(O)cc(O)c(C(=O)N2Cc3cccc(NC4CCOC4)c3C2)c1OCc1ccccc1 (stereo not shown) [Example 79, (2-(Benzyloxy)-4,6-dihydroxy-3-methylphenyl)(4-((tetrahydrofuran-3-yl)amino)isoindolin-2-yl)methanone]	< 1	> 10
